Test: Measurement of solubility in water at 25° C.
Format: physicochemical
Protocol: Measurement of [5-(sodium 4-azidobenzylidene-2-sulfonate)-3-(N-(4,4′-dimethoxybutyl)carbamoyl)methyl]-rhodanine in Terms of Solubility in Water and Molar Absorption Coefficient
Measurement of solubility in water at 25° C. was carried out for the compound obtained in Example 3 or 6, and for the compound, which was obtained through the method of Example 2 described in Japanese Patent Application Laid-Open (kokai) No. 10-310769, represented by the following formula. [drawing 17]
Further, UV spectra were measured for the two compounds in water serving as a solvent so as to measure the molar absorption coefficient ε at a wavelength of maximum absorption.

In the case of “[5-(sodium 4-azidobenzylidene-2-sulfonate)-3-(N-(4,4′-dimethoxybutyl)carbamoyl)methyl]rhodanine”, the solubility in water (in 100 g of water) is reported as 5.4 g and the “solubility of the former compound relative to the latter (reference) compound” value (water, ratio of the invention compound to the reference compound) is reported as “approximately five”.
